Results as given in patent publication US6569633B1, “Modulation of the sulfonylurea receptor and calcium in adipocytes for treatment of obesity/diabetes” (Artecel Science, Inc., priority 1998, dated 2003).

Experiments:
human adipocytes [1] = experiment: Triglyceride accumulation in human adipocytes; type: cell-based; settings: for triglyceride content: control 30.3±0.3
Method: Human subcutaneous abdominal adipocytes were isolated from healthy patients undergoing cosmetic liposuction using methodology we have previously described. Briefly, the tissue was washed several times with Hank's Balanced Salt Solution, minced into small fragments and digested with type I collagenase (1 mg/mL) in a shaking water bath at 37° C. for 30-40 minutes. Cells were then filtered through a sterile nylon filter (500 μm mesh) and cultured in Dulbecco's Modified Eagle's Medium (DMEM) supplemented with 1% fetal bovine serum, 1% bovine serum albumin, 100 U/mL penicillin, 100 μg/mL streptomycin and 50 μg/mL gentamicin. Cells were subsequently cultured in suspension in sterile polypropylene flasks in a humidified 37° C./5% CO2 incubator. After one day, suspended (floating) adipocytes were transferred to fresh medium and maintained as a thin layer at the top of the culture medium to ensure access to nutrients. The cells were maintained for another 24 hours in this medium and then changed to fresh medium with the addition of SUR agonists (such as glibenclamide) for up to 48 hours with the compounds to be tested. Medium was changed every 24 hours, and cell viability was verified with trypan blue exclusion at the end of representative experiments.
Stimulation of fatty acid synthase and concomitant inhibition of lipolysis results in increased lipid accumulation in human adipocytes. Adipocytes were treated as described above, harvested, and their triglyceride content was analyzed and normalized for protein content. […] Thus, these calcium-stimulated biochemical activities will contribute to the development of adipocyte hypertrophy and potentially obesity.

[2] = system: FAS activity in human adipocytes; experiment: Fatty acid synthase (FAS) activity in human adipocytes; type: cell-based
human adipocytes [3] = experiment: Lipolysis (glycerol release into the culture medium) in human adipocytes; type: cell-based
Method: FIG. 4. The anti-lipolytic effect of glibenclamide in human adipocytes. Activation of lipolysis in adipocytes is typically measured by release of glycerol into the media. Human adipocytes were treated with 10 μM glibenclamide alone, 10 μM glibenclamide plus 10 μM diazoxide or 10 μM glibenclamide plus 30 μM nitrendipine for 48 hr. Glycerol release was determined as described (19). *p<0.01 vs. Control.
Human adipocytes were examined for changes in lipolysis regulation by measurement of glycerol release into the media. Glycerol was measured by using a standard method (19), although other techniques for measuring glycerol would be equally useful.
Human subcutaneous abdominal adipose tissue was obtained from patients undergoing elective abdominal cosmetic surgery, although other types of adipose tissue, such as mesenteric, retroperitoneal, perirenal, or omental may be useful in identifying these compounds. Preadipocytes are isolated by collagenase treatment of the tissue and cultured adipocytes prepared as described (patent filed; Jan. 29, 1999; Ser. No. 09/240,029). Agents that regulate calcium flux in adipocytes as noted above can mediate lipolysis. Human adipocytes may be cultured in multi-well plates with different treatments between 1 hour or 24 hours as indicated, and glycerol release into the culture medium was determined as an indicator for lipolysis using a one-step enzymatic fluorometric method. The media collected from 1 hr treatments were used directly for glycerol measurements. For 24 hr treatments, media were removed, and cells were washed with Hank's Balanced Salt Solution and incubated in fresh medium for a further 10-60 min. This media were then used for glycerol measurements for 24 hr treatments.
We next investigated the role of adipocyte SUR1 on lipolysis. Lipolysis was measured as follows. Human adipocytes were treated as described below and glycerol release into the culture medium was determined as an indicator for lipolysis using a one step enzymatic fluorometric method (19). After treatment medium was obtained, HClO4 was added for deproteinization.
Agents that regulate calcium flux in adipocytes as noted above can mediate lipolysis. Human adipocytes (1 mL cells/well) were incubated in 24-well plates with different treatments for either 1 hour or 24 hours as indicated, and glycerol release into the culture medium was determined as an indicator for lipolysis using a one-step enzymatic fluorometric method. The media collected from 1 hr treatments were used directly for glycerol measurements. For 24 hr treatments, media were removed, and cells were washed with Hank's Balanced Salt Solution and incubated in fresh medium for a further 30 min. This media were then used for glycerol measurements for 24 hr treatments. After medium was collected, HClO4 was added to give a final concentration of 3% for deproteinization. The sample was centrifuged at 9000×g for 20 min. The supernatant was then collected and neutralized with 10N NaOH. Samples were stored at −80° C. prior to glycerol assay. Cells were collected, homogenized and stored at −80° C. for subsequent total protein correction by a modified Bradford method using Coomassie Blue dye (PIERCE, Rockford, Ill.).

[4] = system: hyperinsulinemic obese adults; settings: cited from earlier work
obese Zucker rats = settings: cited from earlier work
human adipocytes [5] = experiment: Intracellular Ca2+ ([Ca2+]i) by fura-2 fluorometry in isolated human adipocytes; type: cell-based
Method: FIG. 2. Glibenclamide stimulation of [Ca^2+]i in isolated human adipocyte. [Ca^2+]i in isolated human adipocytes was determined fluorometrically as previously described (4,7). Briefly, the human adipocytes isolated as described above were incubated in DMEM medium overnight for cell recovery. Prior to [Ca^2+]i measurement, adipocytes were pre-incubated in serum-free medium for 2 hrs, rinsed with HBSS solution containing the following components in mM: NaCl 138, CaCl2 1.8, MgSO4 0.8, NaH2PO4 0.9, NaHCO3 4, glucose 20, glutamine 6, HEPES 20 and BSA 1%. Cells were then loaded with fura-2 acetoxymethyl ester (10 μM) in the same buffer for 45 min at 37° C. in the dark with continuous shaking. To remove extracellular dye, cells were rinsed with HBSS for 3 times and resuspended in this solution at a concentration of 2×10^5 cells/ml. [Ca^2+]i was measured using dual excitation (340 and 380 nm) and single emission (510 nm) fluorometry. Following the establishment of stable baseline, the response to glibenclamide (10 and 20 μM) was determined. Digitonin (25 μM) and Tris/EGTA (100 mM) were used to measure maximal and minimal fluorescence to calibrate the signals, and final [Ca^2+]i was then calculated by the equation of Grynkiewicz et al. (17). […] Glibenclamide (Glib) was added at time designated by the arrow. B. The dose-responsive effect of glibenclamide on [Ca^2+]i in human adipocytes. Glibenclamide was added at 10 and 20 µM at the indicated times. *p<0.05 vs. Control, **p<0.05 vs. 10 μM glibenclamide.
The functionality of the SUR1 receptor was determined with respect to calcium mobilization and small molecule effects. [Ca^2+]i response was measured fluorometrically in isolated human adipocytes using a standard method (2,16). Briefly, isolated human adipocytes were incubated in DMEM or any other suitable medium such as Ham's F-10, Modified Eagle's media plus 5-10% fetal calf serum overnight for cell recovery. Prior to [Ca^2+]i measurement, adipocytes were pre-incubated in serum-free medium for 2 hrs, rinsed with HBSS solution containing the following components in mM: NaCl 138, CaCl2 1.8, MgSO4 0.8, NaH2PO4 0.9, NaHCO3 4, glucose 20, glutamine 6, HEPES 20 and BSA 1%. Cells were then loaded with fura-2 acetoxymethyl ester (10 μM) in the same buffer for 30-60 min at 37° C. in dark with continuous shaking. To remove extracellular dye, cells were rinsed with HBSS for three times and resuspended in this solution at a concentration of 1-10×10^5 cells/ml. [Ca^2+]i was measured using dual excitation (340 and 380 nm) and single emission (510 nm) fluorometry. Following the establishment of stable baseline, the response to a SUR agonist such as glibenclamide (1-20 μM) can be determined. Digitonin (25 μM) and Tris/EGTA (100 mM) were used to measure maximal and minimal fluorescence to calibrate the signals, and final [Ca^2+]i was then calculated by a known method such as described in Grynkiewicz et al (17).
Correlation of lipolysis with flux of intracellular calcium ([Ca^2+]i) concentration is then performed. [Ca^2+]i is measured in primary adipocytes. For primary adipocytes, 3 ml of cells are resuspended in 6 ml of HBSS and fura-2/AM was loaded for 80 min at 37° C. Extracellular fura-2/AM is washed three times with HBSS by centrifugation. [Ca^2+]i levels are then measured fluorometrically in suspensions using dual excitation (340 and 380 nm)/single emission (510 nm) fluorometry and [Ca^2+]i is calculated by the computer in the fluorometer. As a control, after loading fura-2/AM cells are pretreated with nitrendipine (RBI, Natick, Mass.) (30 μM, final concentration) for 10 min at 37° C.

[6] = system: GPDH activity in human adipocytes; experiment: GPDH activity in human adipocytes; type: cell-based; settings: 10 μM glibenclamide plus 10 μM diazoxide
Method: FIG. 3. The lipogenic effect of glibenclamide in human adipocytes. As an indicator of lipogenic stimulation, both FAS and GPDH activity were measured. A. Glibenclamide stimulation of FAS activity. Human adipocytes were treated with 10 μM glibenclamide alone, 10 μM glibenclamide plus 10 μM diazoxide or 10 μM glibenclamide plus 30 μM nitrendipine for 48 hr. FAS was measured as described (6, 14). *p<0.001 vs. Control. B. Glibenclamide stimulation of GPDH activity. Human adipocytes were treated with 10 μM glibenclamide or 10 μM glibenclamide plus 10 μM diazoxide for 48 hr. GPDH activity was measured as described (14). *p<0.01 vs. Control.
To study the role of adipocyte SUR1 in regulating lipogenesis, we treated human adipocyte with SUR1 agonist and antagonist using FAS and GPDH activities as lipogenic markers. Human adipocytes were incubated in 24-well plates with the treatments indicated for 48 hr. FAS and GPDH activities were determined spectrophotometrically in crude cytosolic extracts of human adipocytes by measuring the oxidation rate of NADPH or NADH respectively, as previously described (14). The protein correction was measured by a modified Bradford method using Coomassie Blue dye (Pierce, Rockford, Ill.).

## CNc1ccc2oc(C[C@H]3O[C@@]4(CC[C@H]3C)O[C@H]([C@H](C)C(=O)c3ccc[nH]3)[C@H](C)C[C@H]4C)nc2c1C(=O)O [A23187]
Human adipocytes [1]; two-hour exposure to 10 nM A23187, ensuing 48 hours, control 31.4±2.4
  triglyceride accumulation: 52±7 μg/mg protein

## NC(=O)CC[C@@H]1NC(=O)[C@H](Cc2ccccc2)NC(=O)[C@H](Cc2ccc(O)cc2)NC(=O)[C@@H](N)CSSC[C@@H](C(=O)N2CCC[C@H]2C(=O)N[C@@H](CCCN=C(N)N)C(=O)NCC(N)=O)NC(=O)[C@H](CC(N)=O)NC1=O [AVP, arginine vasopressin]
[2]; 1 nM AVP
  fatty acid synthase activity: 6.9±0.1 nmol/min/mg protein
Human adipocytes [3]; 1 nM AVP, short-term
  inhibition of forskolin-induced lipolysis: 56±6.6%

## [Cl-].[K+] [KCl]
[2]; 40 mM KCl for two hours, harvested approximately 72 hours later, control 3.93±0.11
  fatty acid synthase activity: 6.24±0.2 nmol NADPH/min/mg protein
[2]; 40 mM KCl, control 2.87 (diazoxide experiment)
  fatty acid synthase activity: 6.20±0.57 nmol/min/mg protein
Human adipocytes [3]; 10 mM KCl, twenty-four hour exposure
  lipolysis, % of control levels: 75.9±4.1%
Human adipocytes [3]; 25 mM KCl, short-term (one-hour)
  inhibition of forskolin-induced lipolysis: 42±5%
Human adipocytes [3]; 40 mM KCl, short-term (one-hour)
  inhibition of forskolin-induced lipolysis: 50±1.7%
Human adipocytes [1]; 40 mM KCl
  triglyceride content: 43.5±0.5 μg/mg protein

## CC1=NS(=O)(=O)c2cc(Cl)ccc2N1 [diazoxide]
[4]
  effect on obesity: significant antiobesity effect
[2]; 1 nM insulin and 5 μM diazoxide
  fatty acid synthase activity: 7.08 ± 0.10 nmol/min/mg
[2]; 5 μM diazoxide and 2 μM glibenclamide
  fatty acid synthase activity: 1.00±0.10 nmol/min/mg protein
[2]; 5 μM diazoxide and 10 μM glibenclamide
  fatty acid synthase activity: 1.21±0.31 nmol/min/mg protein
[2]; 10 μM glibenclamide plus 10 μM diazoxide, 48 hr
  glibenclamide-caused increase in FAS activity: completely blocked
[2]; 40 mM KCl in the presence of 5 μM diazoxide
  fatty acid synthase activity: 3.24±0.41 nmol/min/mg protein
[2]; inclusion of 5 μM diazoxide
  glibenclamide-induced increases in fatty acid synthase activity: completely prevented
Obese Zucker rats
  effect on obesity: antiobesity effect
Human adipocytes [5]; in the presence of 5 μM diazoxide
  [Ca2+]i response to any dose of glibenclamide: no detectable response
Human adipocytes [5]; in the presence of 2-10 μM diazoxide
  [Ca2+]i response to any dose of glibenclamide: no detectable response
[6]
  glibenclamide-stimulated increase in GPDH activity: totally blocked

## C=C[C@@]1(C)CC(=O)[C@]2(O)[C@@]3(C)[C@@H](O)CCC(C)(C)[C@@H]3[C@H](O)[C@H](OC(C)=O)[C@@]2(C)O1 [forskolin]
Human adipocytes [3]; 1 μM forskolin
  increase in lipolysis: 48%

## CCOC(=O)C1=C(C)NC(C)=C(C(=O)OC)C1c1cccc([N+](=O)[O-])c1 (stereo not drawn) [nitrendipine]
[2]; 1 nM insulin plus 30 μM nitrendipine
  fatty acid synthase activity: 4.12 ± 0.03 nmol/min/mg
Human adipocytes [1]; 1 nM insulin plus nitrendipine
  reduction in insulin-stimulated triglyceride accumulation: 40%

## insulin
[2]; 1 nM insulin, control 3.95±0.11
  fatty acid synthase activity: 14.56±0.22 nmol/min/mg protein

B1: parathyroid hormone (peptide, UniProt P01270 32-115, looked up)
Parathyroid hormone: SVSEIQLMHNLGKHLNSMERVEWLRKKLQDVHNFVALGAPLAPRDAGSQRPRKKEDNVLVESHEKSLGEADKADVNVLTKAKSQ
modifications: Parathyroid hormone
notes: stimulator of receptor-mediated Ca2+ influx
[2]; 4.8 nM PTH
  fatty acid synthase activity: 6.9±0.1 nmol/min/mg protein
Human adipocytes [1]; 4.8 nM PTH
  triglyceride content: 54.5±0.6 μg/mg protein

B2: agouti: recombinant agouti protein, purified agouti gene product from a baculovirus expression system (protein, UniProt Q03288 23-131, looked up)
Agouti-signaling protein: HLALEETLGDDRSLRSNSSMNSLDFSSVSIVALNKKSKKISRKEAEKRKRSSKKKASMKKVARPPPPSPCVATRDSCKPPAPACCDPCASCQCRFFGSACTCRVLNPNC
Human adipocytes [3]; 100 nM recombinant agouti, 24 hr
  decrease in basal lipolysis: 60%
Human adipocytes [3]; 100 nM recombinant agouti, short-term (1 hr)
  effect on basal lipolysis: no effect
Human adipocytes [3]; 1 μM forskolin plus 100 nM agouti
  forskolin-induced increase in lipolysis: reversed
Human adipocytes [3]; short-term agouti treatment
  ACTH-induced lipolysis: totally inhibited
